Assay: Phosphorus dissolution from sintered hydroxyapatite (tooth enamel model) in 2 wt. % citric acid, ICP-AES
Details: for Phosphorus Dissolution Rate (%): 2 wt. % citric acid, pH 2.5, shaken two days, negative control = 100%
Description: In order to evaluate the inhibitory activity of subject substances on the dissolution (decalcification) of tooth enamel, the following tests were conducted using sintered hydroxyapatite as a tooth enamel model.
Thus, 10 ml of test solution was prepared. The test solution (10 ml) and a piece (720 mg, 10×10×2 mm) of sintered hydroxyapatite (APP-100; PENTAX Corp.) were put into a 15-ml polypropylene tube and the tube was sealed. The tube was shaken horizontally at about 120 times per minute for two days. After the shaking, the amount of phosphorus dissolved from the sintered hydroxyapatite was measured in each test solution by high-frequency inductively coupled plasma atomic emission spectrophotometry (ICP-AES). Another test was conducted as a negative control in the same manner as above, using a 2 wt. % citric acid solution (adjusted to pH 2.5 with sodium hydrate) as a test solution. Still another test was conducted as a positive control in the same manner as above, using CaCl2 (10 mM) as a subject substance. Taking the amount of phosphorus dissolved in the negative control as 100%, the phosphorus dissolution rate (%) was calculated for each subject substance.

Compound | Phosphorus Dissolution Rate (%) (subject substance 10 mM) | Phosphorus Dissolution Rate (%) (subject substance 0.2 wt. %) | Phosphorus Dissolution Rate (%) (subject substance 0.5 wt. %) | inhibitory effect on phosphorus dissolution from the sintered hydroxyapatite due to citric acid (in words) (summary of Table 1 results)
[Ca+2].[Cl-].[Cl-] [CaCl2, reference compound] | 75.0% |  |  | 
OC[C@H]1O[C@@H]2O[C@H]3[C@H](O)[C@@H](O)[C@@H](O[C@H]4[C@H](O)[C@@H](O)[C@@H](O[C@H]5[C@H](O)[C@@H](O)[C@@H](O[C@H]6[C@H](O)[C@@H](O)[C@@H](O[C@H]7[C@H](O)[C@@H](O)[C@@H](O[C@H]8[C@H](O)[C@@H](O)[C@@H](O[C@H]1[C@H](O)[C@H]2O)O[C@@H]8CO)O[C@@H]7CO)O[C@@H]6CO)O[C@@H]5CO)O[C@@H]4CO)O[C@@H]3CO [β-cyclodextrin] |  | 98.6% | 79.7% | effectively suppressed phosphorus dissolution
